Measurements published in publication PMC9380258, “Primary and secondary functions of HLA-E are determined by stability and conformation of the peptide-bound complexes” (Cell Reports, 2022).
Like-named read-outs stand apart in the source and are kept apart here.

Experiments:
HLA-E [1] = type: binding, human; details: for Tm (°C) 12M, HLA-E-β2M-peptide complex thermal stability: pH 8
HLA-E [2] = test system: HLA-E; design: method as in Walters et al. 2020; details: sandwich ELISA (3D12 anti-HLA-E capture, anti-β2M detection) after peptide exchange; normalised signal as percentage of positive control VL9 signal; previously published; ref Walters et al. 2020; cited from earlier work
HLA-E*01:03 = HLA-E*01:03 (Homo sapiens, UniProt P13747); test: SEC-SAXS of peptide-refolded HLA-E*01:03 complexes

Row | Sequence | Tm (°C) 12M, HLA-E-β2M-peptide complex thermal stability (HLA-E [1]) [°C] | ELISA Rank (%VL9 binding) (HLA-E [2]) | also measured
1 | VMAPRTVLL [VL9, reference compound] | 49.4 | 100% | 
2 | QAISPRTLN [Neg Ctrl pep, reference compound] | 31.8 | 0.3% | 
3 | RMAATAQVL [Mtb14] | 37.8 | 48% | Molecular envelope Vol %change (HLA-E*01:03): −32%
4 | EIEVDDDLIQK [EK11] |  | minimal binding | 
5 | EKQRESREK [EK9] |  | < 10% | 
6 | RLPAKAPLL [Mtb44] | 50.6 | 97% | 
7 | VMAPRTQLL [VL9 P7Q] |  |  | drop in thermal stability (HLA-E [1]): 6.6 °C
8 | RMYSPTSIL [RL9HIV] | 38.2 | 43% | Molecular envelope Vol %change (HLA-E*01:03; % change in model volume following 120 μM excess peptide addition): −42%
9 | SQAPLPCVL [BZLF1] | 37.7 | 41% | Dmax (Å), maximum dimension (HLA-E*01:03): 108 Å; Molecular envelope Vol (Å3) (HLA-E*01:03): 107,950 Å3
10 | RMYNPTNIL [RL9SIV] | 35.2 | 22% | Molecular envelope Vol %change (HLA-E*01:03): −34%
